Experimental findings from patent publication US11723910B1, “Compositions and methods for modulating the endothelial barrier” (University of South Florida, priority 2019, dated 2023) are described below.

Series [1] relates to HUVEC. Put plainly: Seahorse glycolytic rate assay in HUVEC. Type of series: cell-based, human. Conditions: Afobazole 300 μM 3 hours prior to the assay vs vehicle. As to the method: FIGS. 2A and 2B show glycolytic PER (glycoPER) and oxygen consumption rate (OCR) obtained from glycolytic rate assay of cells treated with 100 μM PRE-084 or vehicle for 3 hours. […] FIGS. 2D-2H show assay parameters obtained from the glycolytic rate assay. FIGS. 2I-2K show assay parameters from ATP rate assay. *P<0.05.
(§1) HUVEC and media were obtained from LifeLine cell technology, PRE-084 from Tocris Biotechne, and CCCP from Abcam. TER was determined with an Electrical Cell-Substrate Impedance Sensor (ECIS; Applied Biophysics). For transfection, 200 nM σ1 siRNA (SEQ ID NO: 2: GGCUUGAGCUCACCACCUA) or control non-targeting RNA (SEQ ID NO: 3: UGGUUUACAUGUUUUCCUA) purchased from Dharmacon was introduced with the Nucleofector II device (Lonza). Cell culture procedures, TER recordings, and protein isolation and transfection protocols have been previously described. Western blotting was done using WES (Protein Simple). Rabbit anti σ1 was purchased from Novus Biologicals NBP1-82479 and mouse anti (β-actin was from cell signaling #3700. Both primaries were used at 1:50 dilution. Seahorse xfp analyzer was used for glycolytic rate and ATP rate with assay kits (Agilent) according to manufacturer's instructions using 40.000 cells/well. Calculation of assay parameters was done using Wave software with its built-in report generators and statistical analysis was done using Prism 7.

The subject of series [2] is HUVEC monolayers treated with CCCP. The series is described as follows: CCCP-induced barrier disruption (TER) in HUVEC. The class given is cell-based, human. The following applies: 10 μM CCCP. As to the method: (§2) Because ATP depletion has been reported to disrupt the endothelial barrier (Unno N, et al. (1996) Hyperpermeability and ATP depletion induced by chronic hypoxia or glycolytic inhibition in Caco-2BBe monolayers. Am J Physiol 270(6 Pt 1):G1010-1021), assessment was performed to determine whether carbonyl cyanide m-chlorophenyl hydrazine (CCCP) induced mitochondrial insult causes barrier disruption and whether the barrier-enhancing properties of PRE-084 can counteract this effect. […] To further validate the contribution of σ1 to endothelial barrier function, siRNA was used to selectively reduce σ1 expression in HUVEC.
(§3) HUVEC and media were obtained from LifeLine cell technology, PRE-084 from Tocris Biotechne, and CCCP from Abcam. TER was determined with an Electrical Cell-Substrate Impedance Sensor (ECIS; Applied Biophysics). For transfection, 200 nM σ1 siRNA (SEQ ID NO: 2: […]) or control non-targeting RNA (SEQ ID NO: 3: […]) purchased from Dharmacon was introduced with the Nucleofector II device (Lonza). Cell culture procedures, TER recordings, and protein isolation and transfection protocols have been previously described. Western blotting was done using WES (Protein Simple). […]

Series [3] concerns human umbilical vein endothelial cell (HUVEC) monolayers. Put plainly: Transendothelial electrical resistance (TER, ECIS) of HUVEC monolayers. Type of series: cell-based. The following applies: mean TER at 70 h vs non-targeting RNA. On the procedure: as §1
Series [4] deals with sigma-1 receptor (σ1). Put plainly: Western blot of σ1 expression after siRNA knockdown in HUVEC. The class given is cell-based, human. Conditions: 200 nM σ1 siRNA. On the procedure:
as §2, §3

Take `CCOc1ccc2nc(SCCN3CCOCC3)[nH]c2c1` [Afobazole]: in series [1], the “glycolytic proton efflux rate” value is listed as “enhances” and the oxygen consumption rate entry is recorded as “lowers”.

On to “carbonyl cyanide m-chlorophenyl hydrazine [CCCP]”, for which, in series [2], the “transendothelial electrical resistance (TER) after CCCP” value is given as “significantly lowered”.

Take “σ1 siRNA: σ1 siRNA (SEQ ID NO: 2: GGCUUGAGCUCACCACCUA) purchased from Dharmacon (listed as RNA, chemistry not given here)”: the “TER in σ1 siRNA-treated cells compared to control” value in series [3] is “significant decreases”. Moreover, the “decrease in σ1 protein compared to controls” value is recorded as 47% in series [4] (48-h post-transfection) and 74% in series [4] (70-h post-transfection).
